Experimental data: ChEMBL document CHEMBL1158661, “Celenamide E, a Tripeptide Alkaloid from the Patagonian Sponge Cliona chilensis” (J Nat Prod, 1998)
The source made the active and inactive calls.

What was measured:
Format in all cases: functional, organism-based
[1] = tested on: Staphylococcus aureus; experiment: Antibiotic activity against Staphylococcus aureus at 50 ug/disk
[2] = tested on: Enterococcus faecalis; experiment: Antibiotic activity against Enterococcus faecalis at 50 ug/disk
[3] = tested on: Bacillus subtilis; experiment: Antibiotic activity against Bacillus subtilis at 50 ug/disk
[4] = tested on: Micrococcus luteus; experiment: Antibiotic activity against Micrococcus luteus at 50 ug/disk

Measured: Activity

N/C(=C\c1cc(O)c(O)c(O)c1)C(=O)N[C@@H](Cc1c[nH]c2cc(Br)ccc12)C(=O)N/C=C/c1ccc(O)c(O)c1
active: all assays above
